Results reported in PMC7288171, “Synergistic Effects of Thiosemicarbazides with Clinical Drugs against S. aureus” (Molecules, 2020).
In brackets after ≈: the same amount, converted by molar mass.

What was measured:
MRSA-1 = assay: MIC, clinical isolate of S. aureus; assay type: cell-based; details: Staphylococcus aureus; clinical isolate MRSA-1; read-out: MIC
Protocol: (§1) The antibacterial activity of the thiosemicarbazides 1–9 and antibiotics (amoxicillin, gentamicin, levofloxacin, linezolid, and vancomycin) was tested on the Gram-positive strains (Microbiologics, St. Cloud, MN, USA) (S. aureus ATCC 25923, S. aureus ATCC 6538, S. epidermidis ATCC 12228, B. subtilis ATCC 6633, B. cereus ATCC 10876, M. luteus ATCC 10240), the Gram-negative strains (Microbiologics, St. Cloud, MN, USA) (E. coli ATCC 25922, K. pneumoniae ATCC 13883, P. mirabilis ATCC 12453, P. aeruginosa ATCC 9027), and clinical isolates of S. aureus (Medical University of Lublin, Lublin, Poland) (MSSA-1, MSSA-2, MSSA-3, MSSA-4, MRSA-1).

MSSA-1 = assay: MIC, clinical isolate of S. aureus; assay type: cell-based; details: Staphylococcus aureus; clinical isolate MSSA-1; read-out: MIC
Protocol: as §1

MSSA-2 = assay: MIC, clinical isolate of S. aureus; assay type: cell-based; details: Staphylococcus aureus; clinical isolate MSSA-2; read-out: MIC
Protocol: as §1

MSSA-3 = assay: MIC, clinical isolate of S. aureus; assay type: cell-based; details: Staphylococcus aureus; clinical isolate MSSA-3; read-out: MIC
Protocol: as §1

MSSA-4 = assay: MIC, clinical isolate of S. aureus; assay type: cell-based; details: Staphylococcus aureus; clinical isolate MSSA-4; read-out: MIC
Protocol: as §1

MTT cytotoxicity assay = assay type: cell-based, human; details: human, Hs27 foreskin fibroblast cells (ATCC CRL-1634), 25 µg/mL, 24 h, vehicle control = 100%
Protocol: (§2) A critical factor in research and development of new antibacterial agents is their abilities to selectively target bacterial cells without toxicity to mammalian cells. Thus, in order to test if antibacterial activity of title thiosemicarbazides is not due to their general toxicity, their effect on mammalian cell viability was assessed using human foreskin fibroblast Hs27 cells (CRL-1634) via MTT assay.
(§3) Cytotoxic properties of the compounds were evaluated using human foreskin fibroblast cells Hs27 (ATCC CRL-1634) (ATCC, Manassas, VA, USA) that were cultured in DMEM-high glucose (Sigma Aldrich, St. Louis, MO, USA). Medium was supplemented with 10% fetal bovine serum (FBS, Sigma Aldrich), 100 U/mL of penicillin, and […] of streptomycin (PenStrep, Sigma Aldrich, St. Louis, MO, USA). Cells were incubated at 37 °C in a humidified atmosphere of 5% CO2. Stock solutions of the tested compounds were prepared dissolving in a sterile dimethyl sulfoxide (DMSO) to the concentration of 50 mg/mL. The cells were seeded into 96-well sterile plates (Nunc) at a cell density of 1 × 10^5 cells/mL. After 24 h of incubation, the medium was removed from each well, and then cells were incubated for the next 24 h with tested compounds (in a fixed dose of 25 µg/mL) in DMEM-high glucose containing 2% FBS. Control cells were cultured only with medium containing 2% addition of FBS. Cytotoxicity of the compounds was evaluated using MTT assay, which is based on the conversion of 3-(4,5-dimethylthiazol-2-yl)-2,5- diphenyltetrazolium bromide (MTT) into dark-blue formazan crystals. Briefly, after 24-h incubation of cells with varying concentrations of the tested compounds, culture medium was removed from the plates. Cells were washed with PBS, and then 100 µL of medium containing 10% MTT solution (5 mg/mL) was added to each well. Cells were incubated for the next 3 h at 37 °C in an atmosphere of 5% CO2. Next, 100 µL (per well) of 10% sodium dodecyl sulfate (SDS) buffer solution was added to dissolve formazan crystals and after an overnight incubation the absorbance was measured at 570 nm using a microplate reader (Epoch, BioTek Instruments, Inc., Winooski, VT, USA).

[1] = tested on: human foreskin fibroblast Hs27 cells (CRL-1634); assay: MTT cytotoxicity assay; assay type: cell-based; details: Homo sapiens, 24 h of treatment
Protocol: as §2, §3

S. aureus ATCC 25923 [2] = assay: Checkerboard broth dilution synergy assay; assay type: cell-based
Protocol: The microdilution checkerboard method was used to evaluate the synergistic effects between the thiosemicarbazides 1–9 and antibiotics, which were determined as the fractional inhibitory concentration indices (FICIs). For these experiments, amoxicillin, gentamicin, levofloxacin, linezolid, and vancomycin were selected to represent the five antimicrobial classes most commonly used in clinical practice. In this way, a total of 45 combinations of thiosemicarbazide-amoxicillin, thiosemicarbazide-gentamicin, thiosemicarbazide-levofloxacin, thiosemicarbazide-linezolid, and thiosemicarbazide-vancomycin against S. aureus ATCC 25923 were tested to identify in vitro synergy effects.
Interaction of the thiosemicarbazides 1–9 in combination with amoxicillin, gentamicin, levofloxacin, linezolid or vancomycin against S. aureus ATCC 25923 were analyzed using the checkerboard broth dilution method to determine the fractional inhibitory concentration indices (FICIs), calculated as: FIC = MIC of drug A in combination/MIC of drug A alone + MIC of drug B in combination/MIC of drug B alone. The calculated FICIs were interpreted as synergistic (FIC ≤ 0.5), additive (0.5 < FIC < 1), indifferent (1 ≤ FIC < 4.0), or antagonistic (FIC ≥ 4.0). The checkerboard assay included ciprofloxacin-carvedilol combination as positive control, whereas cefuroxime in combination with 4-(4-bromophenyl)-1-(3-fluorobezoyl)thiosemicarbazide served as negative control. The Z-factor value for the bioassay was 0.683.

S. aureus ATCC 6538 = tested on: S. aureus ATCC 6538; parameters: method as in PMID 25897586; details: S. a. ATCC 6538; compounds 1–5; cited from earlier work
S. aureus ATCC 25923 [3] = tested on: S. aureus ATCC 25923; parameters: method as in PMID 25897586; details: S. a. ATCC 25923; compounds 1–5; cited from earlier work
[4] = tested on: S. epidermidis ATCC 12228; parameters: method as in PMID 25897586; details: S. e. ATCC 12228; compounds 1–5; cited from earlier work
B. subtilis ATCC 6633 = tested on: B. subtilis ATCC 6633; parameters: method as in PMID 25897586; details: B. s. ATCC 6633; compounds 1–5; cited from earlier work
B. cereus ATCC 10876 = tested on: B. cereus ATCC 10876; parameters: method as in PMID 25897586; details: B. c. ATCC 10876; compounds 1–5; cited from earlier work
M. luteus ATCC 10240 = tested on: M. luteus ATCC 10240; parameters: method as in PMID 25897586; details: M. l. ATCC 10240; compounds 1–5; cited from earlier work
[5] = target: T1, S. aureus topoisomerase IV (Staphylococcus aureus, UniProt P0C1S7+P0C1U9); assay: Topoisomerase IV decatenation assay; assay type: biochemical; details: in words; 50 and 100 µM tested (Figures S1–S3)
T1 construct: purchased Inspiralis, Norwich, UK
T1 sequence (P0C1U9 whole entry): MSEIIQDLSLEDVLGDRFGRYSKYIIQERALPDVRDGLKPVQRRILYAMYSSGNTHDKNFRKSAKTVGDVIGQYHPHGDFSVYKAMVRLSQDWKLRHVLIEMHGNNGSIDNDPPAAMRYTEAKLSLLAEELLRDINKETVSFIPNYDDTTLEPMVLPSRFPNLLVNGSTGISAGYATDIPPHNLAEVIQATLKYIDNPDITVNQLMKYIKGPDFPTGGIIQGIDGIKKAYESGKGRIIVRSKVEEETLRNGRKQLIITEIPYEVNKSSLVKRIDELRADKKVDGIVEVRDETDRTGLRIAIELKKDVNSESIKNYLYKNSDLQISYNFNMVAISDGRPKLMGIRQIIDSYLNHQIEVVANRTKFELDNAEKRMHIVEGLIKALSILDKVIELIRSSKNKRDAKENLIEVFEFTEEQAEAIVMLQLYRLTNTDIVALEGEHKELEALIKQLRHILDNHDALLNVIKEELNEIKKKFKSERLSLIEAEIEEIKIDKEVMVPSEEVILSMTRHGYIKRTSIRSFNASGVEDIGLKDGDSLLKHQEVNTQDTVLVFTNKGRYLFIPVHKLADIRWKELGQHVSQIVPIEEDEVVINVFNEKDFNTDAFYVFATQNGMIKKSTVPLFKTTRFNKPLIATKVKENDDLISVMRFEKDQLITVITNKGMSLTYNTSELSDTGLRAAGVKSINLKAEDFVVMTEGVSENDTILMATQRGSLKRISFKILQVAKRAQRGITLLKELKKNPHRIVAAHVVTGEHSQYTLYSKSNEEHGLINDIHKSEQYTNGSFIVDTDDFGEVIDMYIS
T1 sequence (P0C1S7 whole entry): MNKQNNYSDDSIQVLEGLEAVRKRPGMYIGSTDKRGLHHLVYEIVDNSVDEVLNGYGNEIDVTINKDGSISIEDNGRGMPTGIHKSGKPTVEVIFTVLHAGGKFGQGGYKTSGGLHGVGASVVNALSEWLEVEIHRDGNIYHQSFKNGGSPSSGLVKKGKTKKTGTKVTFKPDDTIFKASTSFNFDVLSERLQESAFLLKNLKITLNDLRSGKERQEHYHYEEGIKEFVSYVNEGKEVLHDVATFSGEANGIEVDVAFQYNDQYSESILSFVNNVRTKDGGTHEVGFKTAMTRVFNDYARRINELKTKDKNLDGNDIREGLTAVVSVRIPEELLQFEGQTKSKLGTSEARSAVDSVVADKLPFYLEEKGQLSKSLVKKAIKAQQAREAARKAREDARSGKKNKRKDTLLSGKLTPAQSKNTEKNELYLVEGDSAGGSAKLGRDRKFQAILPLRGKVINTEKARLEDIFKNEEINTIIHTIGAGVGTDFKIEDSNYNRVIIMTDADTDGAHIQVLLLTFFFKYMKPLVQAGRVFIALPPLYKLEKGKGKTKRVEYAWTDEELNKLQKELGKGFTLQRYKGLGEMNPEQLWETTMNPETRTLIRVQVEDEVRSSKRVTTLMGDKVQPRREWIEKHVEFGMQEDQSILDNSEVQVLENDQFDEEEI
Protocol: Inhibition of decatenation activity of S. aureus topoisomerase IV: The assay was performed using S. aureus topoisomerase IV decatenation kits (Inspiralis, Norwich, UK). Interlinked kDNA substrate (0.5 µg) was incubated with 1 unit of topoisomerase IV (Inspiralis, Norwich, UK), in the dedicated decatenation assay buffer supplied by the manufacturer, in the presence of varying concentrations of the test compounds. Reactions were carried out at 37 °C for 1 h and then terminated by the addition of equal volume of 2 × STOP Buffer and chloroform/iso-amyl alcohol. Samples were vortexed, centrifuged, and run through a 15 cm 1% agarose gel in TAE buffer for 1.5 h at 80 V. Gels were stained with ethidium bromide and visualized under UV light.

## O=C(NC(=S)NNC(=O)c1cccc(Cl)c1Cl)c1ccc([N+](=O)[O-])cc1 [compound 5]
MRSA-1
  MIC: 250 µg/mL (≈ 605 µM)
MSSA-1
  MIC: > 500 µg/mL
MSSA-2
  MIC: > 500 µg/mL
MSSA-3
  MIC: > 500 µg/mL
MSSA-4
  MIC: 500 µg/mL (≈ 1210 µM)
MTT cytotoxicity assay
  viability at 24 h, 25 µg/mL: 70.9%
[1]
  IC50: > 25 µg/mL
S. aureus ATCC 25923 [2]; combination with amoxicillin
  interaction in combination: no interactions
S. aureus ATCC 25923 [2]; combination with gentamicin
  interaction in combination: no interactions
S. aureus ATCC 25923 [2]; combination with levofloxacin
  interaction in combination: no interactions
S. aureus ATCC 25923 [2]; combination with linezolid
  interaction in combination: synergistically
S. aureus ATCC 25923 [2]; combination with vancomycin
  interaction in combination: no interactions
S. aureus ATCC 6538
  MIC: 1.95 µg/mL (≈ 4.72 µM)
S. aureus ATCC 25923 [3]
  MIC: 1.95 µg/mL (≈ 4.72 µM)
[4]
  MIC: 1.95 µg/mL (≈ 4.72 µM)
B. subtilis ATCC 6633
  MIC: 0.98 µg/mL (≈ 2.37 µM)
B. cereus ATCC 10876
  MIC: 0.98 µg/mL (≈ 2.37 µM)
M. luteus ATCC 10240
  MIC: 0.49 µg/mL (≈ 1.19 µM)

## Cc1ccccc1C(=O)NC(=S)NNC(=O)c1cccc(Cl)c1Cl [compound 1]
MRSA-1
  MIC: 125 µg/mL (≈ 327 µM)
MSSA-1
  MIC: > 500 µg/mL
MSSA-2
  MIC: > 500 µg/mL
MSSA-3
  MIC: > 500 µg/mL
MSSA-4
  MIC: > 500 µg/mL
MTT cytotoxicity assay
  viability at 24 h, 25 µg/mL: 78.5%
[1]
  IC50: > 25 µg/mL
S. aureus ATCC 25923 [2]; combination with amoxicillin
  interaction in combination: additive
S. aureus ATCC 25923 [2]; combination with gentamicin
  interaction in combination: no interactions
S. aureus ATCC 25923 [2]; combination with levofloxacin
  interaction in combination: no interactions
S. aureus ATCC 25923 [2]; combination with linezolid
  interaction in combination: additive
S. aureus ATCC 25923 [2]; combination with vancomycin
  interaction in combination: no interactions
[5]
  inhibitory action against topoisomerase IV: no inhibitory effects
S. aureus ATCC 6538
  MIC: 15.63 µg/mL (≈ 40.9 µM)
S. aureus ATCC 25923 [3]
  MIC: 15.63 µg/mL (≈ 40.9 µM)
[4]
  MIC: 7.81 µg/mL (≈ 20.4 µM)
B. subtilis ATCC 6633
  MIC: 3.91 µg/mL (≈ 10.2 µM)
B. cereus ATCC 10876
  MIC: 3.91 µg/mL (≈ 10.2 µM)
M. luteus ATCC 10240
  MIC: 1.95 µg/mL (≈ 5.1 µM)

## O=C(NC(=S)NNC(=O)c1cccc(Cl)c1Cl)c1ccccc1Cl [compound 3]
MRSA-1
  MIC: 125 µg/mL (≈ 310 µM)
MSSA-1
  MIC: > 500 µg/mL
MSSA-2
  MIC: > 500 µg/mL
MSSA-3
  MIC: > 500 µg/mL
MSSA-4
  MIC: 250 µg/mL (≈ 621 µM)
MTT cytotoxicity assay
  viability at 24 h, 25 µg/mL: 81%
[1]
  IC50: > 25 µg/mL
S. aureus ATCC 25923 [2]; combination with amoxicillin
  interaction in combination: additively
S. aureus ATCC 25923 [2]; combination with gentamicin
  interaction in combination: additively
S. aureus ATCC 25923 [2]; combination with levofloxacin
  interaction in combination: additively
S. aureus ATCC 25923 [2]; combination with linezolid
  interaction in combination: additively
S. aureus ATCC 25923 [2]; combination with vancomycin
  interaction in combination: no interaction
[5]
  inhibitory action against topoisomerase IV: no inhibitory effects
S. aureus ATCC 6538
  MIC: 15.63 µg/mL (≈ 38.8 µM)
S. aureus ATCC 25923 [3]
  MIC: 15.63 µg/mL (≈ 38.8 µM)
[4]
  MIC: 7.81 µg/mL (≈ 19.4 µM)
B. subtilis ATCC 6633
  MIC: 3.91 µg/mL (≈ 9.71 µM)
B. cereus ATCC 10876
  MIC: 3.91 µg/mL (≈ 9.71 µM)
M. luteus ATCC 10240
  MIC: 0.98 µg/mL (≈ 2.43 µM)

## O=C(NC(=S)NNC(=O)c1cccc(Cl)c1Cl)c1ccc(Cl)cc1 [compound 4]
MRSA-1
  MIC: > 500 µg/mL
MSSA-1
  MIC: > 500 µg/mL
MSSA-2
  MIC: > 500 µg/mL
MSSA-3
  MIC: > 500 µg/mL
MSSA-4
  MIC: 500 µg/mL (≈ 1240 µM)
MTT cytotoxicity assay
  viability at 24 h, 25 µg/mL: 80.7%
[1]
  IC50: > 25 µg/mL
S. aureus ATCC 25923 [2]; combination with amoxicillin
  interaction in combination: additive
S. aureus ATCC 25923 [2]; combination with levofloxacin
  interaction in combination: synergistic
S. aureus ATCC 25923 [2]; combination with linezolid
  interaction in combination: additive
S. aureus ATCC 25923 [2]; combination with vancomycin
  interaction in combination: did not display any synergism nor additivity
S. aureus ATCC 6538
  MIC: 15.63 µg/mL (≈ 38.8 µM)
S. aureus ATCC 25923 [3]
  MIC: 31.25 µg/mL (≈ 77.6 µM)
[4]
  MIC: 7.81 µg/mL (≈ 19.4 µM)
B. subtilis ATCC 6633
  MIC: 0.98 µg/mL (≈ 2.43 µM)
B. cereus ATCC 10876
  MIC: 3.91 µg/mL (≈ 9.71 µM)
M. luteus ATCC 10240
  MIC: 1.95 µg/mL (≈ 4.84 µM)
